Experimental data from US20240287627A1, “TEMPORALLY MULTIPLEXED IMAGING” (MASSACHUSETTS INSTITUTE OF TECHNOLOGY, priority 2023, published 2024).

Assays:
Type in all cases: cell-based
PKA = experiment: Kinase translocation reporter imaging, PKA KTR-Clover, in NIH/3T3 cells
Description: (§1) The constructs of JNKKTRrsGreenFast-E (JNKKTR is SEQ ID NO: 5), P38KTRDronpa, ERKKTRrsFastLime (ERKKTR is SEQ ID NO: 6) were built based on the original KTRs constructs JNKKTRClover (addgene plasmid 59151; JNKKTR is SEQ ID NO: 5), P38KTRmCerulean3 (addgene plasmid 59155), ERKKTRClover(addgene plasmid 59150; ERKKTR is SEQ ID NO: 6), all gift of Markus W. Covert (Regot S, et al., Cell, (2014); 157(7):1724-34). The newly developed three KTRs were then used along with PKAKTRClover (addgene plasmid […]; PKAKTR is SEQ ID NO: 7) and H2B-TagBFP to report the activities of all four kinases. H2B-TagBFP was used as a nucleus marker. NIH/3T3 cells were imaged on the same microscope and incubator system as the imaging of cell cycle phases. Cell culture media were changed to imaging media (MEM (Gibo) without phenol red with 1% FBS (Gibo)) prior to imaging. The imaging conditions (including exposure time, excitation, and emission) for KTRs were the same as those for imaging cell cycle phases as described previously. […]
(§2) Quantification of KTRs: Kinase activities reported by KTRs including CDK2 reporter and CDK4/6 reporter were quantified following the methods described previously (Regot S, et al., Cell, (2014); 157(7):1724-34). […]

JNK = experiment: Kinase translocation reporter imaging, rsGreenF-E-based JNK sensor, in NIH/3T3 cells
Description: as §1, §2

ERK = experiment: Kinase translocation reporter imaging, rsFastLime-based ERK sensor, in NIH/3T3 cells
Description: as §1, §2

P38 = experiment: Kinase translocation reporter imaging, Dronpa-based P38 sensor, in NIH/3T3 cells
Description: as §1, §2

Ca^2+ = experiment: Ca2+ imaging with NIR-GECO2G in NIH/3T3 cells (seven-signal imaging); details: 100 ng/ml PMA added at t=44 min (after forskolin)
Description: (§3) Simultaneous imaging of seven cell activities within single cells: The genes of the single-color KTRs were cloned into the following plasmid: CAG-JNKKTRrsGreenF-E-P2A-ERK KTRrsFastLime-IRES-PKAKTRClover-P2A-P38KTRDropna (JNKKTR is SEQ ID NO: 5 and PKAKTR is SEQ ID NO: 7). The aforementioned plasmid was then used with plasmid CAG-NIR-GECO2G (Qian Y, et al., PLoS Biol., (2020); 18(11):e3000965), plasmid CMV-Pink Flamindo (Harada K, et al., Sci Rep., (2017); 7(1):7351), and plasmid CMV-BlueCKAR (Mehta S, et al., Nat Cell Biol, (2018); 20(10):1215-25) for imaging 7 signals within individual NIH/3T3 cells. Imaging conditions for blue channel, green channel, and red channel were the same as those used in the imaging of cell cycle phases and CDKs activities. An extra channel (excitation: 637/12 nm at 9 mW/mm^2; emission: 664LP, exposure time: 100 ms) was used for imaging NIR-GECO2G. Images and movies were acquired every 2 min. 50 μM forskolin (Millipore Sigma) and 100 ng/ml Phorbol 12-myristate 13-acetate (PMA) (Millipore Sigma) were used to stimulate cells.

cAMP = cAMP imaging with Pink Flamindo in NIH/3T3 cells (seven-signal imaging); details: 100 ng/ml PMA added at t=44 min (after forskolin)
Description: as §3

PKC = PKC imaging with BlueCKAR in NIH/3T3 cells (seven-signal imaging); details: 100 ng/ml PMA added at t=44 min (after forskolin)
Description: as §3

[1] = seven-signal imaging, 100 ng/ml PMA added at t=44 min (after forskolin)
[2] = four-KTR imaging, 20 ng/ml bFGF2 at t=0 min

| Molecule | PKA response (PKA; [1]) | JNK response (JNK; [1]) | ERK response (ERK; [1]) | P38 response (P38; [1]) | Ca^2+ response (Ca^2+) | cAMP response (cAMP) | PKC response (PKC) | PKA KTR signal after stimulation (PKA; [2]) | JNK KTR signal after stimulation (JNK; [2]) | ERK KTR signal after stimulation (ERK; [2]) | P38 KTR signal after stimulation (P38; [2]) |
| --- | --- | --- | --- | --- | --- | --- | --- | --- | --- | --- | --- |
| CCCCCCCCCCCCCC(=O)O[C@@H]1[C@@H](C)[C@@]2(O)[C@@H](C=C(CO)C[C@]3(O)C(=O)C(C)=C[C@@H]23)[C@@H]2C(C)(C)[C@]12OC(C)=O [PMA, phorbol 12-myristate 13-acetate] | strong responses | strong responses | strong responses | little to no changes | little to no changes | strong responses | strong responses | – | – | – | – |
| bFGF2: mouse basic fibroblast growth factor 2 (protein, UniProt P15655 10-154, looked up) Fibroblast growth factor 2: PALPEDGGAAFPPGHFKDPKRLYCKNGGFFLRIHPDGRVDGVREKSDPHVKLQLQAEERGVVSIKGVCANRYLAMKEDGRLLASKCVTEECFFFERLESNNYNTYRSRKYSSWYVALKRTGQYKLGSKTGPGQKAILFLPMSAKS | – | – | – | – | – | – | – | Fast onset | Fast onset | steadily increased over time | steadily increased over time |
